Measured values taken from ChEMBL document CHEMBL6153135, “Rational Design of a Potent, Selective, and Metabolically Stable CDK9 Inhibitor to Counteract Osimertinib Resistance through Mcl-1 Suppression and Enhanced BRD4 Co-Targeting” (J Med Chem, 2025).
The source made the active and inactive calls. The rule behind the calls is not given here.

Tests used:
[1] = system: Osimertinib-resistant NCI-H1975 cell; experiment: Anti-proliferative activity against human Osimertinib-resistant NCI-H1975 cells assessed as cell inhibition measured after 72 hrs by MTT assay; type: functional, cell-based
[2] = Metabolic stability in mouse liver microsomes assessed as half life measured for 5 to 60 mins by LC-MS/MS analysis; type: ADME, Microsome; details: time 5-60 min
[3] = Metabolic stability in pig liver microsomes assessed as half life measured for 5 to 60 mins by LC-MS/MS analysis; type: ADME, Sus scrofa, Microsome; details: time 5-60 min
[4] = Metabolic stability in mouse liver microsomes assessed as clearance measured for 5 to 60 mins by LC-MS/MS analysis; type: ADME, Microsome; details: time 5-60 min, read-out: CLH
[5] = AUC (0 to infinity) in Sprague-Dawley rat at 2 mg/kg, iv; type: ADME, organism-based; details: in vivo
[6] = Half life in Sprague-Dawley rat at 20 mg/kg, po; type: ADME, organism-based; details: in vivo
[7] = AUC (0 to infinity) in BALB/c mouse at 2 mg/kg, iv; type: ADME, organism-based; details: in vivo
[8] = Drug concentration in lung of BALB-c nude mouse xenografted with human NCI-H1975 cells at 15 mg/kg, iv measured after 30 mins by LC-MS/MS analysis; type: ADME, organism-based; details: read-out: Ct
[9] = Drug concentration in plasma of BALB-c nude mouse xenografted with human NCI-H1975 cells at 15 mg/kg, iv measured after 30 mins by LC-MS/MS analysis; type: ADME, organism-based
[10] = biological target: Homeodomain-interacting protein kinase 1 (Homo sapiens) (UniProt Q86Z02); experiment: Inhibition of HIPK1 (unknown origin) at 100 nM preincubated for 10 mins followed by substrate/ATP measured after 60 mins by ADP-Glo assay relative to control; details: time 70.0 min
Homeodomain-interacting protein kinase 1 (Homo sapiens), sequence (Q86Z02 whole entry, looked up): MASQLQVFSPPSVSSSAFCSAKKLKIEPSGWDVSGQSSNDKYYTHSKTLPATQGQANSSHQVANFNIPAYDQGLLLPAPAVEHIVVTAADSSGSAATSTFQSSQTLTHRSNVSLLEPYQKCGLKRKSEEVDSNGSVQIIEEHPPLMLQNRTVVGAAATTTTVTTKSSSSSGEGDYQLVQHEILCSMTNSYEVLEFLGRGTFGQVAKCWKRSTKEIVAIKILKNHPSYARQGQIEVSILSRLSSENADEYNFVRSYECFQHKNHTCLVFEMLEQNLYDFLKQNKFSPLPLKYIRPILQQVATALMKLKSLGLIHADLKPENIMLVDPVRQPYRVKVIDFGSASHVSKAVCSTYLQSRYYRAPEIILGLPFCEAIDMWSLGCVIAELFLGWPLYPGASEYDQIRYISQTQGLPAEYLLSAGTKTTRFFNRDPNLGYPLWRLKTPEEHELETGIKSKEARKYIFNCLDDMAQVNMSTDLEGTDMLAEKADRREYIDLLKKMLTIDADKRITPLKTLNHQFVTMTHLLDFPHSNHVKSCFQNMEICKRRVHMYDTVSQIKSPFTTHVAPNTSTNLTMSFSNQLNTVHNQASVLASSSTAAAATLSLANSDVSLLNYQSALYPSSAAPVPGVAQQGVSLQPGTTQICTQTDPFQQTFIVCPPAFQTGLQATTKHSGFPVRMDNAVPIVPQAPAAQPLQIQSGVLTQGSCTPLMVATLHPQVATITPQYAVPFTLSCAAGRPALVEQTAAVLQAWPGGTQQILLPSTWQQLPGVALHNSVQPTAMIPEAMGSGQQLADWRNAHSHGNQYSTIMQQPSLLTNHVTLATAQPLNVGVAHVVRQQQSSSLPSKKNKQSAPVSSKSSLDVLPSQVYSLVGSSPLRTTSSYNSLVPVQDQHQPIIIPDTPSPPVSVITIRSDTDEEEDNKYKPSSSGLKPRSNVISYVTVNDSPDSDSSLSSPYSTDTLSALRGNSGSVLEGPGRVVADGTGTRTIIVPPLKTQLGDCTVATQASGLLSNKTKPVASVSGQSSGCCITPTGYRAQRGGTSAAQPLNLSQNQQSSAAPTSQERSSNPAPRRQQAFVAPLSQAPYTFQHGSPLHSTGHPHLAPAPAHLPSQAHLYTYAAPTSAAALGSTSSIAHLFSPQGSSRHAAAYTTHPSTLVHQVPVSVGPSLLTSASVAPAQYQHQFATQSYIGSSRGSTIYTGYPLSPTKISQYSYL

[11] = biological target: Homeodomain-interacting protein kinase 4 (Homo sapiens) (UniProt Q8NE63); experiment: Inhibition of HIPK4 (unknown origin) at 100 nM preincubated for 10 mins followed by substrate/ATP measured after 60 mins by ADP-Glo assay relative to control; details: time 70.0 min
Homeodomain-interacting protein kinase 4 (Homo sapiens), sequence (Q8NE63 whole entry): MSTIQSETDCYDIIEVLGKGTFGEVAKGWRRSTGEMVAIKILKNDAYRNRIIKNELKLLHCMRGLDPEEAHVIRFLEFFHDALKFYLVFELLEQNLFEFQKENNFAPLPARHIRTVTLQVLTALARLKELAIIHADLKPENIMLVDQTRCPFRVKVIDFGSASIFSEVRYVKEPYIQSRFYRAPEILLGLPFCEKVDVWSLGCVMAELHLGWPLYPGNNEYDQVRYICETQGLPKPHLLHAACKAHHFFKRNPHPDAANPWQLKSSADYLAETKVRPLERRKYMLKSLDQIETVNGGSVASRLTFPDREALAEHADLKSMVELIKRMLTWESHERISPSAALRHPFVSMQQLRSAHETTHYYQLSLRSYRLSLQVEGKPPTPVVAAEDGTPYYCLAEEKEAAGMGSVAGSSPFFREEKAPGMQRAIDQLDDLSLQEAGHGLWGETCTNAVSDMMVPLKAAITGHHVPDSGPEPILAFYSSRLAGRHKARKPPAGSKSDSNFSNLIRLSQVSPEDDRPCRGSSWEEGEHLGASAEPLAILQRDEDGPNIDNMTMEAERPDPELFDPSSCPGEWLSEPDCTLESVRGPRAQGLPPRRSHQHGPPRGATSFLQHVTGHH

[12] = biological target: CDK6/cyclin D1 (Homo sapiens) (UniProt P24385+Q00534); experiment: Inhibition of CDK6/Cyclin D1(unknown origin) at 100 nM preincubated for 10 mins followed by substrate/ATP measured after 60 mins by ADP-Glo assay relative to control; type: protein-complex assay; details: time 70.0 min
[13] = biological target: CDK7/Cyclin H/MNAT1 (Homo sapiens) (UniProt P51946+P50613+P51948); experiment: Inhibition of CDK7/Cyclin H/MAT1 (unknown origin) at 100 nM preincubated for 10 mins followed by substrate/ATP measured after 60 mins by ADP-Glo assay relative to control; type: protein-complex assay; details: time 70.0 min
A549 = experiment: Anti-proliferative activity against human A549 cells assessed as cell inhibition measured after 72 hrs by MTT assay; type: functional, cell-based; details: A549, 72 h
PC-9 = experiment: Anti-proliferative activity against human PC-9 cells assessed as cell inhibition measured after 72 hrs by MTT assay; type: functional, cell-based; details: PC-9, 72 h
NCI-H596 = experiment: Anti-proliferative activity against human NCI-H596 cells assessed as cell inhibition measured after 72 hrs by MTT assay; type: functional, cell-based; details: NCI-H596, 72 h
[14] = system: Osimertinib-resistant NCI-H1975 cell; experiment: Inhibition of colony formation in human Osimertinib-resistant NCI-H1975 cells at 25 nM measured after 14 days by crystal violet staining based analysis relative to control; type: functional; details: 336 h, time 14 day
[15] = system: Osimertinib-resistant NCI-H1975 cell; experiment: Induction of apoptosis in human Osimertinib-resistant NCI-H1975 cells assessed as viable cells at 0.5 uM incubated for 16 hrs by Annexin V-FITC/PI staining based flow cytometry (reference value: 89.4 %); type: functional; details: read-out: Activity
[16] = biological target: Cyclin-dependent kinase 9 (Homo sapiens) (UniProt P50750); experiment: Inhibition of CDK9 in human Osimertinib-resistant NCI-H1975 cells assessed as decrease in Mcl-1 level incubated for 12 hrs by Western blot analysis; type: cell-based; details: Osimertinib-resistant NCI-H1975 cell, dose 50-500 nM
Cyclin-dependent kinase 9 (Homo sapiens), sequence (P50750 whole entry): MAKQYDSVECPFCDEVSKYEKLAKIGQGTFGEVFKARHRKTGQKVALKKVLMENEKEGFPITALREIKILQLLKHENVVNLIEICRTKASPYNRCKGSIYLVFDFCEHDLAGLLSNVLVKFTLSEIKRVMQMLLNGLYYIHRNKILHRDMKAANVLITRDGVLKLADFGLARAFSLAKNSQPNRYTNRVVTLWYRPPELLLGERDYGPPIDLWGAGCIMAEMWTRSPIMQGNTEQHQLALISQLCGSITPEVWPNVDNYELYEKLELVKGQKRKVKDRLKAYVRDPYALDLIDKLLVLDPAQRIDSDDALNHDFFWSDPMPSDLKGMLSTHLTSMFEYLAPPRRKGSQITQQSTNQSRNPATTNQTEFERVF

NCI-H1975 [17] = experiment: Anti-proliferative activity against human NCI-H1975 cells assessed as cell inhibition measured after 72 hrs in presence of 500 nM JQ1 by MTT assay; type: functional, cell-based; details: NCI-H1975, 72 h
NCI-H1975 [18] = experiment: Anti-proliferative activity against human NCI-H1975 cells assessed as cell inhibition measured after 72 hrs in presence of 250 nM JQ1 by MTT assay; type: functional, cell-based; details: NCI-H1975, 72 h
[19] = Anti-proliferative activity against human Osimertinib-resistant HCC827 cells assessed as cell inhibition measured after 72 hrs in presence of 500 nM JQ1 by MTT assay; type: functional, cell-based
[20] = Anti-proliferative activity against human Osimertinib-resistant HCC827 cells assessed as cell inhibition measured after 72 hrs in presence of 100 nM JQ1 by MTT assay; type: functional, cell-based
[21] = system: Osimertinib-resistant NCI-H1975 cell; experiment: Anti-proliferative activity against human Osimertinib-resistant NCI-H1975 cells assessed as cell inhibition measured after 72 hrs in presence of 500 nM JQ1 by MTT assay; type: functional, cell-based
[22] = Selectivity ratio of IC50 for anti-proliferative activity against human Osimertinib-resistant HCC827 cells to IC50 for anti-proliferative activity against human Osimertinib-resistant HCC827 cells in presence of JQ1; type: functional
[23] = system: Osimertinib-resistant HCC827 cell; experiment: Upregulation of c-Myc level in human Osimertinib-resistant HCC827 cells at 100 to 500 nM incubated for 12 hrs by Western blot analysis; type: functional, cell-based; details: dose 100-500 nM
[24] = system: Osimertinib-resistant HCC827 cell; experiment: Downregulation of c-Myc level in human Osimertinib-resistant HCC827 cells in presence of JQ1 by RNA-Seq analysis; type: functional, cell-based
[25] = system: Lung adenocarcinoma organoid; experiment: Anti-tumor activity against Osimertinib-resistant patient (#0243)-derived human Lung adenocarcinoma organoid assessed as inhibition of cell viability measured after 96 hrs; type: functional, tissue-based; details: Neoplasm
NCI-H1975 [26] = experiment: Antitumor activity against human NCI-H1975 cells xenografted in BALB-c nude mouse at 30 mg/kg, po administered on every two days relative to control; type: functional; details: NCI-H1975, 48 h, read-out: TGI
NCI-H1975 [27] = experiment: Antitumor activity against human NCI-H1975 cells xenografted in BALB-c nude mouse assessed as reduction in Ki-67 expression at 15 mg/kg, iv administered on every two days by IHC analysis; type: functional, organism-based
[28] = Toxicity in BALB-c nude mouse xenografted with human NCI-H1975 cells assessed as pathological damage in spleen at 15 mg/kg, iv administered on every two days by H and E staining based analysis; type: organism-based; details: in vivo
[29] = Toxicity in BALB-c nude mouse xenografted with human NCI-H1975 cells assessed as pathological damage in kidney at 15 mg/kg, iv administered on every two days by H and E staining based analysis; type: organism-based; details: in vivo
[30] = Antitumor activity against human Osimertinib-resistant HCC827 cells xenografted in BALB-c nude mouse assessed as tumor growth inhibition at 5 mg/kg, iv in presence of JQ1 relative to control; type: functional; details: Osimertinib-resistant HCC827 cell, read-out: TGI
[31] = Toxicity in BALB-c mouse xenografted with human NCI-H1975 cells assessed as decrease in body weight at 5 mg/kg, iv in presence of JQ1; type: organism-based; details: in vivo
[32] = Cmax in Sprague-Dawley rat at 20 mg/kg, po; details: in vivo

**Q.** For CC(=O)N1CCC(NC(=O)c2ccc3cc2OCCCCCCOc2cc(ccc2F)-c2nc(ncc2F)N3)CC1, which IC50 [1] is on record?
**A.** Its IC50 is 50 nM.

**Q.** And the half-life [2]?
**A.** Its half-life is 1.07 h.

**Q.** What about the half-life [3] of the same molecule?
**A.** Its half-life is 0.655 h.

**Q.** What about the microsomal CLint [4] of the same molecule?
**A.** Its microsomal CLint is 21.6 µL/min/mg.

**Q.** What about the AUC(0-inf) [5] of the same molecule?
**A.** The AUC(0-inf) was 2550 ng·h/mL.

**Q.** What about the half-life [6] of the same molecule?
**A.** The half-life was 6.7 h.

**Q.** What about the AUC(0-inf) [7] of the same molecule?
**A.** Its AUC(0-inf) is 396 ng·h/mL.

**Q.** What about the concentration at 0.5 h [8] of the same molecule?
**A.** The concentration at 0.5 h was 6650 ng/mL.

**Q.** What about the concentration at 0.5 h [9] of the same molecule?
**A.** The concentration at 0.5 h was 2450 ng/mL.

**Q.** What about the inhibition [10] of the same molecule?
**A.** The inhibition was 88.5%.

**Q.** And the inhibition [11]?
**A.** The inhibition was 87.6%.

**Q.** And the inhibition [12]?
**A.** Its inhibition is 33.1%.

**Q.** And the inhibition [13]?
**A.** Its inhibition is 11.9%.

**Q.** And the IC50 (A549)?
**A.** Its IC50 is 140 nM.

**Q.** And the IC50 (PC-9)?
**A.** Its IC50 is 140 nM.

**Q.** What about the IC50 (NCI-H596) of the same molecule?
**A.** The IC50 was 90 nM.

**Q.** And the inhibition at 0.025 µM [14]?
**A.** The inhibition at 0.025 µM was 100%.

**Q.** What about the viability at 0.5 µM [15] of the same molecule?
**A.** The viability at 0.5 µM was 63.1%.

**Q.** And the inhibition [16]?
**A.** The inhibition was “Dose-dependent-effect”.

**Q.** And the IC50 (NCI-H1975 [17])?
**A.** The IC50 was 4.7 nM.

**Q.** And the IC50 (NCI-H1975 [18])?
**A.** Its IC50 is 29.7 nM.

**Q.** And the IC50 [19]?
**A.** The IC50 was 5.2 nM.

**Q.** What about the IC50 [20] of the same molecule?
**A.** The IC50 was 31.6 nM.

**Q.** And the IC50 [21]?
**A.** The IC50 was 4.3 nM.

**Q.** What about the “Ratio IC50” value [22] of the same molecule?
**A.** The value was 10.

**Q.** What about the Activity [23] of the same molecule?
**A.** Its Activity is “Active”.

**Q.** And the Activity [24]?
**A.** The Activity was “Active”.

**Q.** And the IC50 [25]?
**A.** The IC50 was less than 10 nM.

**Q.** And the inhibition in vivo at 30 mg/kg (NCI-H1975 [26])?
**A.** Its inhibition in vivo at 30 mg/kg is 52.5%.

**Q.** And the Activity (NCI-H1975 [27])?
**A.** Its Activity is “Active”.

**Q.** What about the Activity [28] of the same molecule?
**A.** The Activity was “Non-toxic”.

**Q.** And the Activity [29]?
**A.** The Activity was “Non-toxic”.

**Q.** What about the inhibition in vivo at 5 mg/kg [30] of the same molecule?
**A.** The inhibition in vivo at 5 mg/kg was 71.5%.

**Q.** And the Activity [31]?
**A.** The Activity was “Non-toxic”.

**Q.** And the Cmax [32]?
**A.** The Cmax was 775.6 ng/mL.
